From paper PMC4697807, “Novel Zn^2+ Modulated GPR39 Receptor Agonists Do Not Drive Acute Insulin Secretion in Rodents” (PLoS ONE, 2015)

What was measured:
[1] = Isothermal titration calorimetry (ITC) of compound with ZnCl2; settings: ITC at 30°C; single site binding model; ± SD; read-out: K D (Zn^2+-interaction)
Protocol: To determine the binding affinities of the discussed compounds for Zn^2+, isothermal titration calorimetry experiments were conducted on a MicroCal ITC-200 system (Malvern Instruments) at a temperature of 30°C. The compounds, provided as a DMSO stock solution of 10 mM, were diluted in 50 mM HEPES (pH 7.4) and 150 mM NaCl to reach a final nominal concentration of 400 μM (= 4% (v/v) final DMSO concentration). Complete titration of the compounds was typically achieved by injecting 27 x 1.3 μl aliquots of 5 mM ZnCl2 provided in a matching buffer. The thermodynamic binding parameters were extracted by non-linear regression analysis of the binding isotherms (Microcal Origin version 7.0 software package). A single site binding model was applied, yielding binding enthalpy (ΔH), stoichiometry (n), entropy (ΔS), and association constant (Ka). All experiments have been performed in triplicate to allow for error estimations.

INS-1E cells = experiment: Glucose stimulated insulin secretion (GSIS) in INS-1E cells; format: cell-based, rat; settings: for effect on GSIS: 1, 3 and 10 μM compound, 11.1 mM glucose; for unbound concentration yielding significant increases in GSIS (highest unbound concentration): free fraction calculated for 0.1% BSA
Protocol: INS-1E cells obtained from Dr. Wollheim (Univ. Geneva, Switzerland), were grown in Roswell Park Memorial Institute medium (RPMI) 1640 (Life technologies) supplemented with 5% of fetal bovine serum (Thermo Fischer Scientific, Inc. Waltham, MA). At 4 or 5 days before the assay, cells were plated in 24-well plates at 2 × 10^5 cells /well. At the day of the assay, cells were washed twice by Krebs-Ringer bicarbonate (KRB) buffer containing 0.1% BSA (pH7.4) and pre-incubated at 37°C for 30 min. The cells were washed twice again, and the buffer was replaced by KRB buffer containing 0, 1, 3 and 10 μM of compounds and 11.1 mM of glucose. In order to examine whether Zn^2+ has an enhancing effect on the activity of each compound, 20 μM of Zn^2+ was added in the incubation buffer as necessary. After cells were stimulated at 37°C for 1 h, the reaction was terminated by placing on ice. The buffer was collected from each well and precipitated (1000 rpm for 2 min at 25°C) in order to be separated from the cells. For each sample, concentration of insulin was measured using HTRF insulin kit (Cisbio).
The free fraction in the INS-1E assay, containing 0.1% w/w BSA, was calculated by using the equilibrium conditions of a single binding site model as in Eq 3.
The free fraction in mouse plasma corresponds to 1—CP/Ptot.

C57BL/6J mice = experiment: Intraperitoneal glucose tolerance test (IPGTT) in C57BL/6J mice; format: in vivo, mouse; settings: 30 and 100 mg/kg IP, 30 min before 1.5 g/kg glucose IP; fasted lean mice
Text: Six-week-old male C57BL/6J mice were purchased from CLEA (Tokyo, Japan). Fourteen-week-old and fifteen-week-old male DIO mice were purchase from Charles River Japan (Yokohama, Japan). They were used after at least one week acclimation period. C57BL/6J mice were allowed free access to a normal diet (CRF-1, Oriental Yeast, Tokyo, Japan). DIO mice were allowed free access to a high-fat diet with 60 kcal% fat (D12492, Research Diets, New Brunswick, NJ). They were kept under standard 12-h light/dark cycle. Animal experiments were approved by the Institutional Animal Care and Use Committee of Mitsubishi Tanabe Pharma Corporation.
Seven-week-old and eight-week-old C57BL/6J mice were used. Mice were fasted overnight and were randomly grouped. Five ml/kg of a solution of vehicle (10% dimethylformamide (DMF)/18% Cremophore) or compounds were intraperitoneally (IP) administered. Thirty min later, 1.5 g/20 ml/kg of glucose solution was IP administered. […] Plasma glucose was measured using Glucose CII Test Wako Kit (Wako Pure Chemical Industries, Osaka, Japan). Plasma insulin was measured using Ultra Sensitive Mouse Insulin ELISA Kit (Morinaga, Yokohama, Japan).
Statistical analysis was performed using SAS9.1.3 with student’s t-test or Dunnett’s test. All data were expressed as mean ± standard error of mean (SEM). […]

[2] = Unbound plasma exposure in the IPGTT; format: in vivo, mouse; settings: 0-30 min after glucose challenge; IP; lean mice
Protocol: Plasma protein binding of test compound was examined by an equilibrium dialysis method. The compound was mixed with blank mouse plasma to a concentration of 10 μM. The plasma sample and PBS were added to a sample chamber and a buffer chamber of an equilibrium dialysis device, respectively. The device was incubated for 4 h at 37°C in a CO2 incubator (oscillation: 180 rpm). After incubation, an aliquot in each chamber was collected. They were mixed with acetonitrile/methanol (50/50, v/v) and were centrifuged. The supernatants were analyzed by LC-MS/MS. Plasma unbound fraction (f) was calculated by Eq 2, f=Cf/Ct (2) where Cf and Ct represent the compound concentration in the buffer and sample chamber, respectively. […]
The unbound plasma concentrations were calculated by correcting the total plasma concentration derived from the LC/MS analysis by the free fraction, f u. The exposure in terms of the area under the unbound concentration-time curve in the interval 30–60 min after drug administration AUCu 30–60min, i.e. the interval 0–30 min after glucose challenge, was calculated using the linear up-log down trapezoidal method in the non compartmental module of Phoenix 6.2 (Pharsight). […] The ratio between C u,av and the EC 50 of the different in vitro potency assays was calculated for each compound and dose administered.

| Compound | Kd [1] [µM] | effect on GSIS (INS-1E cells; absence of Zn^2+) | effect on GSIS (INS-1E cells; presence of 20 μM Zn^2+) | unbound concentration yielding significant increases in GSIS (highest unbound concentration) (INS-1E cells) [µM] | insulinotropic effect (C57BL/6J mice) | average in vivo exposure (C u,av), unbound [2] [µM] |
| --- | --- | --- | --- | --- | --- | --- |
| N#Cc1ccc(OCCn2ccnc2)c(OCCn2ccnc2)c1 [AZ1395, 3,4-bis-(2-imidazol-1-ylethoxy)-benzonitrile] | 52.1 ± 9.1 | – | – | – | – | – |
| Cc1nc2c(C(=O)O)cnn2c(O)c1Cc1ccc(Cl)cc1 [AZ4237, 6-[(4-chlorophenyl)methyl]-7-hydroxy-5-methyl-pyrazolo[1,5-a]pyrimidine-3-carboxylic acid] | 8.72 ± 1.06 | no effects | dose dependent GSIS increases | 7.2 | did not elicit insulinotropic effects in vivo | 19 |
| Cc1nc(-c2nc3c(c(=O)[nH]2)CN(C(=O)c2cccc(Cl)c2F)CC3)cs1 [AZ7914, 6-(3-chloro-2-fluoro-benzoyl)-2-(2-methylthiazol-4-yl)-3,5,7,8-tetrahydropyrido-[4,3-d]pyrimidin-4-one] | 30.6 ± 19.1 | no effects | dose dependent GSIS increases | 8.4 | did not elicit insulinotropic effects in vivo | 29 |
